From patent US8987212B2, “Oleanoyl peptide composition and method of treating skin aging” (priority 2007, dated 2015)
Where a SMILES comes first, the peptide text is derived from it. The star is where a group is joined. X1 = CC1(C)CC[C@]2(C(=O)*)CC[C@]3(C)C(=CCC4[C@@]5(C)CC[C@H](O)C(C)(C)C5CC[C@]43C)C2C1

Key:
[1] = system: B16F1 mouse melanoma cells; assay: Melanin inhibition in α-MSH induced melanoma cells; format: cell-based
Procedure: B16F1 mouse melanoma cells were seeded in a 6 well microtiter plate at a seeding density of 5000 cells per well in 2 ml DMEM medium per well. After 24 hours of incubation in a CO2 incubator, melanin production is induced by 0.1 nM ∝-MSH by replacing the medium with medium containing ∝-MSH. The cells were then treated with varying concentrations of sample (composition containing oleanoyl peptide and stilbenes/licorice extract/THC) over a period of 9 days with renewal of ∝-MSH containing medium and sample at regular intervals of 3 days. Control wells were maintained without sample treatment and only with the vehicle used for sample preparation. After the incubation period, the medium was removed and the cells were scraped and washed in PBS. Thereafter, melanin was extracted by 1N NaOH in boiling water bath for 5 minutes. The absorbance of the melanin extract was read at 405 nm in a microplate reader. The inhibitory effect of the sample is calculated based on the decrease of melanin formation.
T=absorbance due to melanin in the presence of inhibitor

[2] = system: Nitric Oxide (NO); assay: Extracellular nitric oxide from LPS-challenged human neutrophils; format: cell-based; conditions: for % activity NO expression against LPS control: ↓ = inhibition
Procedure: Experimental observations were made in human neutrophil that were challenged with LPS. […] Rolipram at 100 μg/ml dose level was used as a standard drug to observe the authenticity and reproducibility of the experimental design.
The Oleanoyl peptide was also screened for NO and PGE2 expression.

[3] = system: Human osteosarcoma cells; assay: Collagen enhancement by Sirius Red staining; format: cell-based; conditions: at 1.25 ppm, 48 hrs, vs untreated cells
Procedure: Collagen enhancement was determined by using Sirius Red stain that binds with a greater specificity to Collagen type I and Collagen type III of the extracellular matrix. The stain bound to the collagen is dissolved and the optical density (OD) is measured spectrophotometrically using a Fluostar optima microtiter plate reader at 544 nm. The OD of the stain bound to collagen is directly proportional to the collagen content in the cells.
Human osteosarcoma cells from human bone were used for collagen enhancement studies. The cells were seeded with a seeding density of 10000 cells per well of a 24 well plate. Confluent monolayers of cells were initially treated with varying non cytotoxic concentrations of Oleanoyl peptide and vehicle (control) in the culture medium. For each concentration, 4 replicates were maintained and the analysis was performed twice such that the ‘n’ value is 8. After sample treatment, the cells were incubated in a CO2 incubator for 48 hrs. The cells were then developed by Sirius red staining technique to analyze the collagen enhancement. The cells were washed extensively with PBS. The cells were fixed using Bouin's fluid containing 1.3% picric acid, 35% formaldehyde and glacial acetic acid in 15:5:1 ration by incubating with 1 ml of Bouin's fluid per well for 1 hr at RT. The fixative is then removed by suction with micropipette and the cells were washed under running tap water for 15 minutes. After air drying the culture plate, the cells were stained using 0.1% Sirius red stain in 1.3% picric acid. 1 ml per well Sirius red stain was added and the cells were incubated for 1 hr under mild shaking of 70 RPM at RT in Orbitek Shaker. The stain was then removed by suction and the cells were extensively washed with 0.01N HCl to remove unbound dye. The dye bound to collagen was then dissolved in 0.2 ml of 0.1N NaOH per well for 30 minutes under mild shaking of 70 RPM in Orbitek Shaker at RT. The dye was then transferred to 96 well microplate and the OD was read at 544 nm in Fluostar Optima microplate reader.
The percentage enhancement in collagen with respect to the untreated cells considering the OD of untreated cells as optimal under normal conditions is calculated as follows, % enhancement in […]=[(100/C)×T]−100 Where C=absorbance due to collagen in untreated cells
T=absorbance due to collagen in sample treated cells

[4] = biological target: porcine pancreatic elastase (Sus scrofa, UniProt P00772); assay: EnzChek Elastase Assay, elastase inhibitory potential
Chain of porcine pancreatic elastase (P00772 27-266): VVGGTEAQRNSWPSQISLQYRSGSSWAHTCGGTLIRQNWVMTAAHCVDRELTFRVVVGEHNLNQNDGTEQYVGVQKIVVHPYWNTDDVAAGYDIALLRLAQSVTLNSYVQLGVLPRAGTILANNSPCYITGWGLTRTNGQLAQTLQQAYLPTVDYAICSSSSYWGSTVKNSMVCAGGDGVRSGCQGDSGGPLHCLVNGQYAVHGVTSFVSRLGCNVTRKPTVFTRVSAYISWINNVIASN

With `C[C@@H](O)[C@H](NC(=O)[C@H](CCCCN)NC(=O)[C@]12CCC(C)(C)CC1C1=CCC3[C@@]4(C)CC[C@H](O)C(C)(C)C4CC[C@@]3(C)[C@]1(C)CC2)C(=O)N[C@H](C(=O)N[C@@H](CCCCN)C(=O)N[C@@H](CO)C(=O)O)[C@@H](C)O` (stereo partly drawn) [Oleanoyl peptide, Oleanoyl-Lys-Thr-Thr-Lys-Ser-OH] (X1-KTTKS-OH) the reduction in melanin ([1]; result in words, FIG. 15) was “no significant reduction in melanin”, the “Melanin inhibition IC50 (μg/ml), Individual active” value ([1]; α-MSH induced, 9 days) was “Not significant” and the “Concentration of NO produced (μmol/ml) Mean ± S.E.” value (shortened to “Concentration of NO produced”) ([2]; test sample 0.125 μg/ml) was 42.77 ± 1.42 µmol/mL. The “Concentration of NO produced” value ([2]; test sample 0.25 μg/ml) was 41.21 ± 1.05 µmol/mL, the “Concentration of NO produced” value ([2]; test sample 0.5 μg/ml) was 39.25 ± 1.08 µmol/mL and the “Concentration of NO produced” value ([2]; test sample 1 μg/ml) was 34.12 ± 2.00 µmol/mL. For the same molecule, the “Concentration of NO produced” value ([2]; test sample 2 μg/ml) was 30.21 ± 1.18 µmol/mL, the “% activity NO expression against LPS control” value (“% activity NO expression” below) ([2]; test sample 0.125 μg/ml) was 3.51↓ % and the “% activity NO expression” value ([2]; test sample 0.25 μg/ml) was 7.03↓ %. The “% activity NO expression” value ([2]; test sample 0.5 μg/ml) was 11.45↓ %, the “% activity NO expression” value ([2]; test sample 1 μg/ml) was 23.03↓ % and the “% activity NO expression” value ([2]; test sample 2 μg/ml) was 31.85%. For the same molecule, the “% activity NO expression” value ([2]; test sample 2 μg/ml, listed as OP) was 31.85↓ %, the “% activity NO expression” value ([2]; test sample 4 μg/ml) was 29.66↓ % and the enhancement in collagen [3] was 17%. For the same molecule, the IC50 [4] was 143 µM.
